From article PMC4476799, “Englerin A Agonizes the TRPC4/C5 Cation Channels to Inhibit Tumor Cell Line Proliferation” (PLoS ONE, 2015)
pEC50, pIC50: −log10 of the molar value. Read-outs that look alike come from different tables or passages of the source.

Tested on: cancer cell lines from the cancer cell line encyclopedia (CCLE)
Test: Cell line profiling (CLiP) proliferation experiment
Format: cell-based
Conditions: Homo sapiens; for pIC50: read-out: Crossing Point; for pEC50: read-out: Inflection Point
Procedure: Compound profiling experiment and data analysis was performed as previously described. Data was imported and plotted using the Tibco Spotfire DXP application. Lines were categorized as sensitive, intermediate and refractory as follows: Amax<-40 & Inflection Point <2 ~ Sensitive, Amax>-20 & Inflection Point >10 ~ Refractory, all else were called Intermediate. Cancer Cell line HG-U133 Plus 2 data was processed and normalized as described. […] Five sets of refractory cell lines were generated from the pool of refractory cell lines trying to match the lineage composition of the set of sensitive cell lines. The limma package was used as previously described to perform the statistical comparison.

[1] = CHP-212, CHP-212, autonomic_ganglia, NS
[2] = COLO 205, COLO 205, large_intestine, adenocarcinoma
[3] = COLO-668, COLO 668, lung, small_cell_carcinoma
[4] = COR-L279, COR-L279, lung, small_cell_carcinoma
[5] = Calu-6, Calu-6, lung, undifferentiated_carcinoma
[6] = DMS-114, DMS 114, lung, small_cell_carcinoma
[7] = DMS-273, DMS 273, lung, small_cell_carcinoma
[8] = DOHH-2, cell line DOHH-2, haematopoietic_and_lymphoid_tissue
[9] = EFM-19, cell line EFM-19, breast
[10] = FaDu, cell line FaDu, upper_aerodigestive_tract
[11] = G-401, cell line G-401, soft_tissue
[12] = HCC1143, cell line HCC1143, breast

CC(C)[C@@]12C[C@@H](O)[C@@](C)(O1)[C@@H]1CC[C@@H](C)[C@H]1[C@@H]2OC(=O)/C=C/c1ccccc1 [Englerin B]
5.05: pIC50 (DU-145, cell line DU 145, prostate)
4.86: pEC50 [1] | pEC50 (CHP-212, CHP-212 cells) | pEC50 [7]
4.80: pIC50 (GCIY, cell line GCIY, stomach)
4.83: pEC50 (DV-90, cell line DV-90, lung)
4.94: pEC50 (COLO-741, COLO 741, skin, NS) | pEC50 (COLO-741, COLO 741 cells) | pEC50 [5] | pEC50 (Calu-6, Calu-6 cells) | pEC50 (EBC-1, cell line EBC-1, lung)
4.57: pEC50 (HCC95, cell line HCC-95, lung)
5.17: pIC50 [4] | pEC50 [4]
4.93: pEC50 [2] | pEC50 (COLO 205, COLO 205 cells) | pEC50 [6] | pIC50 (EOL1, cell line EOL-1, haematopoietic_and_lymphoid_tissue)
4.56: pIC50 (HCC95, cell line HCC-95, lung)
4.89: pEC50 [8] | pEC50 [10]
4.78: pIC50 [2] | pIC50 [7]
4.62: pIC50 (EBC-1, cell line EBC-1, lung)
4.58: pIC50 (CHL-1, CHL-1, skin, NS) | pIC50 (CHL-1, CHL-1 cells) | pIC50 [3] | pEC50 [3] | pIC50 (COLO-668, COLO 668 cells) | pEC50 (COLO-668, COLO 668 cells)
4.64: pIC50 [1] | pIC50 (HCC44, cell line HCC-44, lung)
4.92: pEC50 [11] | pEC50 (G-401, cell line G-401)
4.75: pIC50 (DV-90, cell line DV-90, lung) | pIC50 [10]
5.00: pIC50 (G-402, cell line G-402, soft_tissue)
4.71: pIC50 (HCC827, cell line HCC827, lung)
5.01: pEC50 [12]
< 4.52: pIC50 (CMK, CMK cells) | pIC50 (COLO-680N, COLO-680N (oesophagus)) | pIC50 (COLO-680N, oesophagus, squamous_cell_carcinoma) | pIC50 (COLO-741, COLO 741, skin, NS) | pIC50 (COLO-741, COLO 741 cells) | pIC50 (COLO-800, COLO-800, skin, NS) | pIC50 (COLO-800, cell line COLO-800 (skin, NS)) | pIC50 (COLO-829, COLO 829, skin, NS) | pIC50 (COLO-829, COLO 829 cells) | pIC50 (COR-L23, COR-L23 (lung)) | pIC50 (COR-L23, COR-L23, lung, large_cell_carcinoma) | pIC50 (COR-L47, COR-L47, lung, small_cell_carcinoma) | pIC50 (COR-L47, COR-L47 cells) | pIC50 (COR-L88, COR-L88 (lung)) | pIC50 (COR-L88, COR-L88, lung, small_cell_carcinoma) | pIC50 (Calu-1, Calu-1, lung, squamous_cell_carcinoma) | pIC50 (Calu-1, cell line Calu-1) | pIC50 (Calu-3, Calu-3 (lung)) | pIC50 (Calu-3, Calu-3, lung, adenocarcinoma) | pIC50 [5] | pIC50 (Calu-6, Calu-6 cells) | pIC50 (DBTRG-05MG, cell line DBTRG-05MG (central_nervous_system, astrocytoma_Grade_IV)) | pIC50 (DBTRG-05MG, central_nervous_system, astrocytoma_Grade_IV) | pIC50 (DMS-79, DMS 79 (lung)) | pIC50 (DMS-79, cell line DMS 79, lung) | pIC50 (Daoy, Daoy (central_nervous_system)) | pIC50 (Daoy, central_nervous_system, NS) | pIC50 (Detroit 562, Detroit 562, upper_aerodigestive_tract, NS) | pIC50 (Detroit 562, cell line Detroit 562) | pIC50 (EFM-19, cell line EFM-19 (breast, ductal_carcinoma)) | pIC50 [9] | pIC50 (G-361, cell line G-361, skin) | pIC50 (G-361, cell line G-361) | pIC50 (GA-10, cell line GA-10, haematopoietic_and_lymphoid_tissue) | pIC50 (GA-10, cell line GA-10) | pIC50 (GAMG, GAMG (central_nervous_system)) | pIC50 (GAMG, cell line GAMG, central_nervous_system) | pIC50 (GMS-10, cell line GMS-10, central_nervous_system) | pIC50 (GMS-10, cell line GMS-10) | pIC50 (Granta-519, cell line GRANTA-519, haematopoietic_and_lymphoid_tissue) | pIC50 (Granta-519, cell line GRANTA-519) | pIC50 (HCC38, cell line HCC38, breast) | pIC50 (HCC38, cell line HCC38) | pIC50 [12]
4.73: pIC50 (ESS-1, cell line ESS-1, endometrium)
4.88: pIC50 [8]
5.15: pEC50 [9]
4.76: pIC50 [6] | pIC50 (DMS-114, cell line DMS 114)
4.84: pIC50 [11]
4.96: pIC50 (COLO 320, COLO-320, large_intestine, adenocarcinoma)
4.82: pIC50 (Caov-3, Caov-3, ovary, adenocarcinoma)
4.66: pIC50 (DLD-1, DLD-1, large_intestine, adenocarcinoma)
